Results reported in ChEMBL document CHEMBL1201862, “PubChem BioAssay data set” (2004).
Counter-ions that a name gives are not always drawn. Calls of active or inactive are those of the source.

Legend:
[1] = molecular target: Polyadenylate-binding protein 1 (Homo sapiens, UniProt P11940); experiment: MLLE binding blockers, Cy5 peptide tracer – biochemical, fluorescence polarization, Cy5-PAM2 peptide, secondary, miRNA deadenylation inhibitor project, dose response (AID 602260); assay type: functional; conditions: read-out: IC50_Mean
14-3-3 protein gamma = 14-3-3 protein gamma (Homo sapiens, UniProt P61981); experiment: modulators of 14-3-3 gamma client binding – dose response (AID 711); assay type: functional
[2] = molecular target: Mast/stem cell growth factor receptor Kit (Homo sapiens, UniProt P10721); assay type: functional;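 note: KIT entry within a kinase panel assay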
[3] = molecular target: Serine/threonine-protein kinase DCLK1 (Homo sapiens, UniProt O15075); assay type: functional;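 note: affinity for DCLK1 (listed as DCAMKL1) measured as one member of a kinome-wide kinase profiling panel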
[4] = molecular target: Proto-oncogene tyrosine-protein kinase Src (Homo sapiens, UniProt P12931); assay type: functional;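 note: SRC entry within a kinome-wide kinase profiling panel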
[5] = molecular target: Macrophage-stimulating protein receptor (Homo sapiens, UniProt Q04912); experiment: Navigating the Kinome. Panel member name: MST1R; assay type: functional
[6] = molecular target: MAP/microtubule affinity-regulating kinase 3 (Homo sapiens, UniProt P27448); assay type: functional;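 note: MARK3 affinity measured as one member of a kinome panel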
[7] = molecular target: Casein kinase I isoform gamma-1 (Homo sapiens, UniProt Q9HCP0); assay type: functional;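 note: measured as the CSNK1G1 member of a kinome profiling panel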
[8] = molecular target: Tyrosine-protein kinase Lyn (Homo sapiens, UniProt P07948); assay type: functional;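 note: lyn as one member of a kinase panel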
[9] = molecular target: Serine/threonine-protein kinase Chk2 (Homo sapiens, UniProt O96017); assay type: functional;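 note: CHEK2 entry within a kinome-wide screening panel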
Focal adhesion kinase 1 = Focal adhesion kinase 1 (Homo sapiens, UniProt Q05397); assay type: functional;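 note: measured as one member of a kinome panel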
[10] = molecular target: Macrophage colony-stimulating factor 1 receptor (Homo sapiens, UniProt P07333); assay type: functional;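 note: value comes from the Navigating the Kinome screening panel, CSF1R member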
LIM domain kinase 1 = LIM domain kinase 1 (Homo sapiens, UniProt P53667); experiment: Navigating the Kinome. Panel member name: LIMK1; assay type: functional
[11] = molecular target: Hepatocyte growth factor receptor (Homo sapiens, UniProt P08581); assay type: functional;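 note: kinase panel profiling across the kinome, with MET as the panel member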
[12] = molecular target: MAP kinase-activated protein kinase 2 (Homo sapiens, UniProt P49137); assay type: functional;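 note: measured as one member of a kinome-wide kinase panel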
[13] = molecular target: Serine/threonine-protein kinase 17A (Homo sapiens, UniProt Q9UEE5); assay type: functional
[14] = molecular target: Tyrosine-protein kinase JAK2 (Homo sapiens, UniProt O60674); assay type: functional;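 note: JAK2 tested as one member of a kinase panel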
SUMO-activating enzyme = SUMO-activating enzyme (Homo sapiens, UniProt Q9UBT2); experiment: blockers of SAE1/SAE2–UBC9 SUMO transfer – biochemical, HTRF, uHTS, primary screen (AID 2006); assay type: protein-complex assay
Streptococcus = experiment: GAS UMAA2166 growth inhibition – luminescence, BacTiterGlo, counter-screen for streptokinase expression inhibitor project, dose response (AID 1915); assay type: functional, organism-based;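 note: potency for reduction of bacterial viability or growth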
Insulin-degrading enzyme [15] = molecular target: T1, Insulin-degrading enzyme (Homo sapiens, UniProt P14735); experiment: cellular IDE activation of Abeta substrate cleavage – fluorescence polarization, HEK cells, dose response (AID 588439); assay type: functional, cell-based
T1 sequence (P14735 whole entry): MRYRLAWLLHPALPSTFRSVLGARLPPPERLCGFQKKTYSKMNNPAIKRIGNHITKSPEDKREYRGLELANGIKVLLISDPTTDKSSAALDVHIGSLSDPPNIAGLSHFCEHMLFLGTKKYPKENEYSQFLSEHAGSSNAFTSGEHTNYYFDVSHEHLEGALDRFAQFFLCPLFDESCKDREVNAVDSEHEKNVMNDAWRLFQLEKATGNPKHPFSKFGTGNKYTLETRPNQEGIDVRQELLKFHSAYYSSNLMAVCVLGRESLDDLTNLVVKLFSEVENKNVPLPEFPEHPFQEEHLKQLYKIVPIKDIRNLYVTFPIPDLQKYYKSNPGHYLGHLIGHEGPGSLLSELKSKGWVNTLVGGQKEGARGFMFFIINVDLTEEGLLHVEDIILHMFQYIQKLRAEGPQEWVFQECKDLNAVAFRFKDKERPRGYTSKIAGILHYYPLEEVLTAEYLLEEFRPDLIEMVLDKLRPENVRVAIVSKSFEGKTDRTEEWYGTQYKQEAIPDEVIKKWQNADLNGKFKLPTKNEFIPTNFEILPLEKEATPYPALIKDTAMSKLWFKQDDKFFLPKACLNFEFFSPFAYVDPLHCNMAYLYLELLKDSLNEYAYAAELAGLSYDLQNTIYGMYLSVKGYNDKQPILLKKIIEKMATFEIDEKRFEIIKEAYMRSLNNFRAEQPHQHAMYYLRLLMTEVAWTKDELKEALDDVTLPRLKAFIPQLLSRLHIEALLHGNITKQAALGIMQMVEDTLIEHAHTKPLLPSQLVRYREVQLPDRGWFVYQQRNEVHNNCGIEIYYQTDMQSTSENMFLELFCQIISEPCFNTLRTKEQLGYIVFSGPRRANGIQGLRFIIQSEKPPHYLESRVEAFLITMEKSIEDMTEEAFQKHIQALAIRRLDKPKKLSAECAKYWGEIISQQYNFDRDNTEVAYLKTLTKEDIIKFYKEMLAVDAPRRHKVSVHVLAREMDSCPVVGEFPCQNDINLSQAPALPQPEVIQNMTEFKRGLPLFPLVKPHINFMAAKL

Insulin-degrading enzyme [16] = molecular target: T1, Insulin-degrading enzyme; experiment: recombinant IDE activation, cell-free – biochemical, fluorescence polarization, counter-screen for IDE activator project, dose response (AID 588681)
CAAX prenyl protease 2 = CAAX prenyl protease 2 (Saccharomyces cerevisiae S288c, UniProt Q03530); assay type: biochemical

Chain of Serine/threonine-protein kinase 17A (Q9UEE5 whole entry): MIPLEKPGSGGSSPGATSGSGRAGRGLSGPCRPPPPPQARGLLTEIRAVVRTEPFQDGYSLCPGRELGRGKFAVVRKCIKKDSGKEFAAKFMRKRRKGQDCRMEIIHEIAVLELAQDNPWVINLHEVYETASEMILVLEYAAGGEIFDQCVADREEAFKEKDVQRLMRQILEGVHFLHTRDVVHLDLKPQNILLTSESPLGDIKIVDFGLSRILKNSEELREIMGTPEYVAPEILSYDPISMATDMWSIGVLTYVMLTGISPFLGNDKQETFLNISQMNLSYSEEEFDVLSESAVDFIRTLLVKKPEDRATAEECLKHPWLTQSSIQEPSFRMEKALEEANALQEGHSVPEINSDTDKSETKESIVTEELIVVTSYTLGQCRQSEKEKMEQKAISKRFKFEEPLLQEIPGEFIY
Chain of Serine/threonine-protein kinase DCLK1 (O15075 whole entry): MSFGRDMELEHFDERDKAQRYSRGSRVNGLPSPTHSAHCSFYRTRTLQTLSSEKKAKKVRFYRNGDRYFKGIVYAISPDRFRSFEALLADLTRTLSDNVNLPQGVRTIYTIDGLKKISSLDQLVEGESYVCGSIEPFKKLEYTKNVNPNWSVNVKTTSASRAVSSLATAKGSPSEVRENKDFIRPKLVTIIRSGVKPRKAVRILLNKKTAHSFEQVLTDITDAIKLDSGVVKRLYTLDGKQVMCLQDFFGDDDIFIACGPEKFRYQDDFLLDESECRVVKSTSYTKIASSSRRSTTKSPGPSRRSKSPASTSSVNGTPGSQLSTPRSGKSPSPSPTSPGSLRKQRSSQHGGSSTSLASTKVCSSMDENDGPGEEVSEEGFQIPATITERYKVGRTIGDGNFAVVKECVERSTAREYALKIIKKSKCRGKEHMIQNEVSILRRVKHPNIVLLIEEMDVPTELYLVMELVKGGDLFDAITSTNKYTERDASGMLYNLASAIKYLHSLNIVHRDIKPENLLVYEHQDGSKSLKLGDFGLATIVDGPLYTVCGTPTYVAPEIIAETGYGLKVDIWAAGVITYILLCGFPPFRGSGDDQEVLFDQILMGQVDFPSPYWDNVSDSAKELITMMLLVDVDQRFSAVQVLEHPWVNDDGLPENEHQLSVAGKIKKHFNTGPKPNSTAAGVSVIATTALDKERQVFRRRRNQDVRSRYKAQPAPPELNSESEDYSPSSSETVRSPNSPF
Chain of Serine/threonine-protein kinase Chk2 (O96017 whole entry): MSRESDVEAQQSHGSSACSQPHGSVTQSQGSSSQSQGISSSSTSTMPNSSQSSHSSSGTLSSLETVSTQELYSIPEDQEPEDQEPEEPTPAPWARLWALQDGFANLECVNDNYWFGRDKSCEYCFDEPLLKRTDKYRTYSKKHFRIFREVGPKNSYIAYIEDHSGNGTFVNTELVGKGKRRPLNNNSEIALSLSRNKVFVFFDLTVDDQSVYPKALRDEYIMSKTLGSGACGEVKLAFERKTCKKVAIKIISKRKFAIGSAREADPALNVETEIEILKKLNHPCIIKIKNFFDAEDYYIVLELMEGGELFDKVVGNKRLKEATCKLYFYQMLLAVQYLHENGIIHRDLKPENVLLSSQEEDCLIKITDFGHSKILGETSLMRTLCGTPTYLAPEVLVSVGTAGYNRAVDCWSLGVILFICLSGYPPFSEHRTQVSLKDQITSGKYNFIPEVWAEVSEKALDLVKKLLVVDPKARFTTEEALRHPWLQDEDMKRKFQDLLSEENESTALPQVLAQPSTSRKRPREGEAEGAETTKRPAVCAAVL
Chain of MAP/microtubule affinity-regulating kinase 3 (P27448 whole entry, canonical isoform): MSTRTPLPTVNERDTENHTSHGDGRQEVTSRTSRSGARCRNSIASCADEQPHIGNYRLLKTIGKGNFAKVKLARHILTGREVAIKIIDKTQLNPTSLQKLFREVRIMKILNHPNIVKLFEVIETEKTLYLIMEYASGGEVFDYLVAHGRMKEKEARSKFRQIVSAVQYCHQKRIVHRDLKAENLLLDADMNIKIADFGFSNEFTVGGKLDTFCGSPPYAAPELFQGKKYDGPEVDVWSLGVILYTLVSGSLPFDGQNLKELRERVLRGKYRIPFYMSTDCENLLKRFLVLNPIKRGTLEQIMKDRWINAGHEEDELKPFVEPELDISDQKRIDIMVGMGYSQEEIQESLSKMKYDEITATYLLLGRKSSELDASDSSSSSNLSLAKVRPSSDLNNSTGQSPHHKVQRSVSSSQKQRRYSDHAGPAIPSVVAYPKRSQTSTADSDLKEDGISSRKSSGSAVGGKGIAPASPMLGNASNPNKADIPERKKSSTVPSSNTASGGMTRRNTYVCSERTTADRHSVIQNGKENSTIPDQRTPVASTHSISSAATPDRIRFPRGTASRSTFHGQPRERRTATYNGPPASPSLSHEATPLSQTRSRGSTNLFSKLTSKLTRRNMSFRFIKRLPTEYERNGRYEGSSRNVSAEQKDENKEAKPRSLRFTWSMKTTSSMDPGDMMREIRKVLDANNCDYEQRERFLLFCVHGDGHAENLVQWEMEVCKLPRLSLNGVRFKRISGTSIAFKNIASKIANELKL
Chain of Focal adhesion kinase 1 (Q05397 whole entry): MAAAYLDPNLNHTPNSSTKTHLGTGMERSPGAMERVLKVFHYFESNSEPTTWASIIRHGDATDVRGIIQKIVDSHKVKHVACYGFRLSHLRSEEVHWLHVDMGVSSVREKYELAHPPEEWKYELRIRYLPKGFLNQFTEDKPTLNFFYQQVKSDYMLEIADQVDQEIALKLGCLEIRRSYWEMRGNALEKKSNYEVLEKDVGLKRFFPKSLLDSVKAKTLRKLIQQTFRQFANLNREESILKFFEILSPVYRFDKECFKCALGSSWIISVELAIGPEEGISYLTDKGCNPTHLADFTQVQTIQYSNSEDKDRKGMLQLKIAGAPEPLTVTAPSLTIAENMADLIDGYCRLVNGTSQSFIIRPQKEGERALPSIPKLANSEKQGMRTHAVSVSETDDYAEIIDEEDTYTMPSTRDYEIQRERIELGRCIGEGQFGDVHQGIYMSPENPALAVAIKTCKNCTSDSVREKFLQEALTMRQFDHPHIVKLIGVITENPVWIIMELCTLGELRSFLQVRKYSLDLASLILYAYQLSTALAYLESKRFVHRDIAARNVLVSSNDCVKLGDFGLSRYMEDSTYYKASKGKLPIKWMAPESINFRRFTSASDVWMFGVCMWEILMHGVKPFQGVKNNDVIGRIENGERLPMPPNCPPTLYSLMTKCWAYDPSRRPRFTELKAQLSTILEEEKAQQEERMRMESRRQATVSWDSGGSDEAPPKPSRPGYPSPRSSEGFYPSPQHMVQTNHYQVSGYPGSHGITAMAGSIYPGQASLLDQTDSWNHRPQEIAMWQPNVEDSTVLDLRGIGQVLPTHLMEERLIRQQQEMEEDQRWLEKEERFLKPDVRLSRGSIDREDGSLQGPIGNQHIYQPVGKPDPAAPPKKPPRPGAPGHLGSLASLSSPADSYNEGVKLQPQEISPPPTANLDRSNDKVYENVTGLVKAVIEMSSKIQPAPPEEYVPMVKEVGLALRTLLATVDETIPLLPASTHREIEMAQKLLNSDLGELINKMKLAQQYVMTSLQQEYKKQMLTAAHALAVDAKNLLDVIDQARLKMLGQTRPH
Chain of SUMO-activating enzyme (Q9UBE0 whole entry): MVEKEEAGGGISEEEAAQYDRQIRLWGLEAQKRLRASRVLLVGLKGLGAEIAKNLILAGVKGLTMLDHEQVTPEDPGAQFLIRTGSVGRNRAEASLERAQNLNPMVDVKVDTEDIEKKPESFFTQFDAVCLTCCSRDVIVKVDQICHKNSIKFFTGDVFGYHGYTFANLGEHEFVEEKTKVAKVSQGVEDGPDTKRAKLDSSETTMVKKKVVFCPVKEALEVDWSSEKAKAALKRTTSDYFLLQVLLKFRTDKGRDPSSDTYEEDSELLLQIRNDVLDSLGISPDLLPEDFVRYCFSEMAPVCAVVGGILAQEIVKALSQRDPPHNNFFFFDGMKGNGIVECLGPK
Chain of SUMO-activating enzyme (Q9UBT2 whole entry): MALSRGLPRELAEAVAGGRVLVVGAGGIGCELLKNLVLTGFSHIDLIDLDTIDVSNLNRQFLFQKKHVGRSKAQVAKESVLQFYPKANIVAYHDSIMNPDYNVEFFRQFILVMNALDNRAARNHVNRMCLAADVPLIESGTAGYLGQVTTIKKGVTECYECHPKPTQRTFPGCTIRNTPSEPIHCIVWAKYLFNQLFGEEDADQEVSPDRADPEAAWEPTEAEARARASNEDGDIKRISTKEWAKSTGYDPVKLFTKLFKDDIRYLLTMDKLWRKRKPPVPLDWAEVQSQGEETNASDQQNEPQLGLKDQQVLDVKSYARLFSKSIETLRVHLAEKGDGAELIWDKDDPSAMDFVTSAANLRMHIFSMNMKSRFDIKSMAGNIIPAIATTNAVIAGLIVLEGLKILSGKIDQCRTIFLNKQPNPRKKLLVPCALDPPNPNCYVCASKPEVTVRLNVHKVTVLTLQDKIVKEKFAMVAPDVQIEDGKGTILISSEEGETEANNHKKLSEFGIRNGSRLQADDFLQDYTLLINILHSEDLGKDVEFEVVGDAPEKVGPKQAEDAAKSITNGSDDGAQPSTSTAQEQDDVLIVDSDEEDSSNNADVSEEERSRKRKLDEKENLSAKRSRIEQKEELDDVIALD
Chain of Casein kinase I isoform gamma-1 (Q9HCP0 whole entry, canonical isoform): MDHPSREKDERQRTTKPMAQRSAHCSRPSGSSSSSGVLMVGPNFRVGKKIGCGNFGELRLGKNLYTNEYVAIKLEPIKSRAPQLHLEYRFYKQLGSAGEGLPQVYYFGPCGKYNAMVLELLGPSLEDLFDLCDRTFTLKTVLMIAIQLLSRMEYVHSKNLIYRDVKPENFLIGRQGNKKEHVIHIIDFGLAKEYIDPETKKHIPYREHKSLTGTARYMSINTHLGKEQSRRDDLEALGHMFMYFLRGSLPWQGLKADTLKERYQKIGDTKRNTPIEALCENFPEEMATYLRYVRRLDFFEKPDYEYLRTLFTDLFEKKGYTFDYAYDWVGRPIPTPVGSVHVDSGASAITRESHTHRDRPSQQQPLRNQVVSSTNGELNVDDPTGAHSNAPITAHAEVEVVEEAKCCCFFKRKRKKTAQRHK

Structure (SMILES): CC[C@@H](CO)NC(=O)[C@@H]1C=C2c3cccc4c3c(cn4C)C[C@H]2N(C)C1 [METHYSERGIDE MALEATE]
- IC50 [1]: > 66 µM (inactive)
- IC50 (14-3-3 protein gamma): > 50 µM (not active)

Structure (SMILES): CN1CCN(c2nc(C3=C(c4c[nH]c5ccccc45)C(=O)NC3=O)c3ccccc3n2)CC1 [SOTRASTAURIN]
- Ki [2]: > 1.26 µM (inactive)
- Ki [3]: > 10 µM (inactive)
- Ki [4]: > 2 µM (inactive)
- Ki [5]: 0.158 µM (active)
- Ki [6]: 1 µM (active)
- Ki [7]: > 6.31 µM (inactive)
- Ki [8]: > 1.58 µM (inactive)
- Ki [9]: > 1.58 µM (inactive)
- Ki (Focal adhesion kinase 1): > 6.31 µM (inactive)
- Ki [10]: > 2.51 µM (inactive)
- Ki (LIM domain kinase 1): > 3.16 µM (inactive)
- Ki [11]: > 2.51 µM (inactive)
- Ki [12]: > 7.94 µM (inactive)
- Ki [13]: > 3.98 µM (inactive)
- Ki [14]: > 2.51 µM (inactive)

Structure (SMILES): CCC(C)n1c(NC(=O)c2ccccc2)c(C#N)c2nc3ccccc3nc21 (configuration not stated)
- IC50 (SUMO-activating enzyme): 8.4 µM (active)

Structure (SMILES): CCCCCCCCCCOC(=O)C[n+]1c(COc2ccc(C)cc2)n(C)c2ccccc21
- EC50 (Streptococcus): 7.92 µM (active)
- EC50 (Insulin-degrading enzyme [15]): > 6.08 µM (active)
- EC50 (Insulin-degrading enzyme [16]): 16.9 µM (inactive)
- AC50 (CAAX prenyl protease 2): 5.51 µM (active)
